Among the test systems are RPMI-8226; A549; DU-145; HT-29; TK-10; NCI-H23; NCI/ADR-RES; SW-620; K562; SF-295; HOP-62; KM12; IGROV-1; PC-3; HL-60; MDA-MB-231; HCT-15; SF-268; COLO 205; SK-MEL-5.
Common to all, as to test: growth of human tumour cells (NCI), 48 h

The source of these data is ChEMBL document CHEMBL1201862, “PubChem BioAssay data set” (2004).

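Interpolation was linear, between the two tested concentrations surrounding the appropriate level; five concentrations were tested over 48 hours in 96-well plates. GI50: concentration for 50% inhibition of growth.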 Calls of active or inactive are those of the source. Cut-off read from the data, not from the text of the source: active = GI50 up to about 1.1 µM and inactive = higher. Square brackets hold non-standard residues; d marks the D form. Peptide text beside a SMILES is read from it. 2Nal = N[CH](Cc1ccc2ccccc2c1)C(=O)O

Take `O=C(O)CSc1ccc([N+](=O)[O-])cc1[N+](=O)[O-]`: the GI50 in the experiment on RPMI-8226, in the experiment with A549, in the experiment on DU-145, with HT-29, with TK-10 and in the experiment with NCI-H23 was > 100 µM (inactive) throughout. Also, the GI50 in the experiment with NCI/ADR-RES, in the experiment with SW-620, in the experiment with K562, in the experiment on SF-295, with HOP-62 and in the experiment with KM12 was > 100 µM (inactive) each time. The GI50 in the experiment with IGROV-1 was > 100 µM (inactive); with PC-3, > 100 µM (inactive); in the experiment with HL-60 it was > 100 µM (inactive); with MDA-MB-231, > 100 µM (inactive); with HCT-15, over 100 µM; in the experiment with SF-268, > 100 µM (inactive).
As to `CC1(C)C=[N+]([O-])C(C)(C)N1O`, the GI50 with RPMI-8226, in the experiment with A549, with DU-145, with HT-29, in the experiment with TK-10 and in the experiment with NCI-H23 was > 10 µM (inactive) each time. Also, the GI50 in the experiment on NCI/ADR-RES, with SW-620, in the experiment on K562, with SF-295, with COLO 205 and with HOP-62 was > 10 µM (inactive) each time. Also, the GI50 with KM12 is > 10 µM (inactive); in the experiment with PC-3, > 10 µM (inactive); with HL-60, > 10 µM (inactive); in the experiment with MDA-MB-231 it was > 10 µM (inactive); in the experiment on HCT-15 it was over 10 µM; in the experiment with SF-268 it was > 10 µM (inactive).
In the case of `O=[N+]([O-])c1ccc(NC(=S)N/N=C(\c2ccccc2)c2ccccn2)cc1`, the GI50 with RPMI-8226 is 4.74 µM (inactive); in the experiment with A549, 1.82 µM (inactive); with DU-145 it was 1.66 µM (inactive); in the experiment on SK-MEL-5 it was 1.36 µM (inactive); with TK-10, 1.24 µM (inactive); with NCI-H23, 2.18 µM (inactive). For the same compound, the GI50 in the experiment on NCI/ADR-RES is 2.04 µM (inactive); in the experiment with K562, < 0.01 µM (active); in the experiment with SF-295, 1.55 µM (inactive); in the experiment on COLO 205, 0.312 µM (active); in the experiment on HOP-62 it was 0.242 µM (active); with KM12, 1.7 µM (inactive). Moreover, the GI50 is 1.64 µM (inactive) with IGROV-1; 0.229 µM (active) in the experiment on PC-3; < 0.0129 µM (active) in the experiment with HL-60; < 0.01 µM (active) with MDA-MB-231; 0.119 µM in the experiment on HCT-15; 0.0491 µM (active) in the experiment on SF-268.
As to `O=C(O)c1cc([N+](=O)[O-])cc2c(=O)c3cnccc3[nH]c12`, the GI50 in the experiment with RPMI-8226, with DU-145, in the experiment on HT-29, in the experiment on SK-MEL-5, in the experiment on NCI-H23 and in the experiment with NCI/ADR-RES was > 100 µM (inactive) throughout. In addition, the GI50 in the experiment with K562, in the experiment with SF-295, in the experiment with COLO 205, in the experiment on HOP-62, with KM12 and with IGROV-1 was > 100 µM (inactive) each time. The GI50 in the experiment on PC-3 was 29.6 µM (inactive); with HL-60, > 100 µM (inactive); in the experiment with MDA-MB-231 it was > 100 µM (inactive); in the experiment on HCT-15, over 100 µM.
In the case of `CC(=O)OCC1OC(NC(=S)CCSc2nc3ccccc3c(=O)n2-c2ccccc2)C(OC(C)=O)C(OC(C)=O)C1OC(C)=O` (stereo not drawn), the GI50 in the experiment on RPMI-8226 was > 100 µM (inactive); in the experiment with A549, > 100 µM (inactive); in the experiment on DU-145, > 100 µM (inactive); in the experiment on HT-29, > 100 µM (inactive); with SK-MEL-5, 45 µM (inactive); in the experiment on NCI-H23 it was 68.1 µM (inactive). Besides, the GI50 in the experiment with NCI/ADR-RES was > 100 µM (inactive); in the experiment with SW-620, 41.2 µM (inactive); with K562, 34.2 µM (inactive); with SF-295, 32.5 µM (inactive); with COLO 205, 40.1 µM (inactive); in the experiment with HOP-62 it was 28.3 µM (inactive). Further, the GI50 with KM12 is 36.5 µM (inactive); with IGROV-1 it was 2.34 µM (inactive); in the experiment with PC-3, 40.9 µM (inactive); in the experiment with HL-60, 29.2 µM (inactive); with MDA-MB-231, > 100 µM (inactive); in the experiment on HCT-15 it was 53.7 µM. The GI50 in the experiment with SF-268 is > 100 µM (inactive).
Regarding `COc1ccc(-c2cc(-c3ccc(Nc4ccnc5cc(Cl)ccc45)cc3)nc(N)c2C#N)cc1`, the GI50 in the experiment with RPMI-8226, with A549, with DU-145, with TK-10, in the experiment on NCI-H23 and in the experiment with NCI/ADR-RES was > 100 µM (inactive) each time. In addition, the GI50 in the experiment on SW-620, in the experiment with K562, with SF-295, in the experiment with COLO 205, in the experiment with HOP-62 and with KM12 was > 100 µM (inactive) in each case. Further, the GI50 with IGROV-1 was > 100 µM (inactive); with PC-3 it was > 100 µM (inactive); in the experiment with HL-60 it was > 100 µM (inactive); with MDA-MB-231, > 100 µM (inactive); in the experiment on HCT-15, over 100 µM; with SF-268, > 100 µM (inactive).
With `COC(=O)[C@@H]1CN(C(=O)c2ccccc2)C(=O)N1`, the GI50 in the experiment with RPMI-8226, in the experiment with A549, with DU-145, with HT-29, in the experiment with SK-MEL-5 and in the experiment on TK-10 was > 100 µM (inactive) throughout. Also, the GI50 in the experiment with NCI-H23, in the experiment with NCI/ADR-RES, in the experiment on SW-620, with K562, in the experiment on SF-295 and with HOP-62 was > 100 µM (inactive) in each case. In addition, the GI50 in the experiment on KM12, in the experiment on IGROV-1, in the experiment with PC-3, in the experiment on HL-60, in the experiment on MDA-MB-231 and in the experiment with SF-268 was > 100 µM (inactive) each time.
Take `CC(C)C(NC(=O)C(CCCCN)NC(=O)C(Cc1c[nH]c2ccccc12)NC(=O)C(Cc1ccc(O)cc1)NC(=O)C(CS)NC(=O)C(N)Cc1ccc2ccccc2c1)C(=O)NC(CS)C(=O)NC(C(N)=O)C(C)O` (stereo not drawn) (H-[2Nal]CYWKVCT-NH2; configuration not given here): the GI50 in the experiment on RPMI-8226, in the experiment with A549, in the experiment on DU-145, in the experiment with HT-29, with SK-MEL-5 and in the experiment on NCI-H23 was > 12.5 µM (inactive) in each case. Further, the GI50 in the experiment with NCI/ADR-RES, in the experiment with SW-620, in the experiment with SF-295, with COLO 205, in the experiment with HOP-62 and with KM12 was > 12.5 µM (inactive) throughout. The GI50 in the experiment on IGROV-1 was > 12.5 µM (inactive); in the experiment on PC-3, > 12.5 µM (inactive); in the experiment with HL-60, > 12.5 µM (inactive); in the experiment with MDA-MB-231, > 12.5 µM (inactive); in the experiment on HCT-15, over 12.5 µM; in the experiment with SF-268 it was > 12.5 µM (inactive).
